Measurements taken from patent US6838574B1, “Dicarba-closo-dodecarborane derivatives” (Institute of Medicinal Molecular Design, Inc., priority 1999, dated 2005).
pIC50: −log10 of the molar value.

Experiments:
Assay type in all cases: cell-based
[1] = biological target: T1, rat estrogen receptor (pCI-rER α) (Rattus norvegicus, UniProt P06211); assay: Antiestrogenic activity, luciferase reporter gene assay with coexisting β-estradiol; details: for pIC50: coexisting β-estradiol 1 × 10^−9M
T1 construct: expressed in transfected cells; host or cells: COS-1 cells
T1 sequence (P06211 1-600): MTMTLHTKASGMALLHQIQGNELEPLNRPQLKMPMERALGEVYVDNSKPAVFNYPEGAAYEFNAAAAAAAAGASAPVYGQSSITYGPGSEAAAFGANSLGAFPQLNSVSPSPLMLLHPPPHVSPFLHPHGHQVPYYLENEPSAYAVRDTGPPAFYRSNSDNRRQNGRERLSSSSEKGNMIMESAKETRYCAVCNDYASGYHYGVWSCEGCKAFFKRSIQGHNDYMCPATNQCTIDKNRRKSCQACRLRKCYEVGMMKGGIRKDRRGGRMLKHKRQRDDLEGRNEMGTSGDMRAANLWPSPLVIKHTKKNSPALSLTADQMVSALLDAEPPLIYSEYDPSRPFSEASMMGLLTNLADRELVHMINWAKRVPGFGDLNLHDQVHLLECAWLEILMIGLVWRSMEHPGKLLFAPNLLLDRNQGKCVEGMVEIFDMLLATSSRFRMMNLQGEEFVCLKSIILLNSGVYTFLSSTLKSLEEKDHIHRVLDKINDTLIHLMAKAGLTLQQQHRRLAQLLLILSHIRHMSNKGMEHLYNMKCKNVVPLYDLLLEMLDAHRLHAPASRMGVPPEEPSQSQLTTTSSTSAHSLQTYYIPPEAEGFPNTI
Protocol: As estrogenic activity, estrogen receptor-dependent transcriptional activation abilities of the test compounds were determined by the r porter gene assay using luciferase gene. COS-1 cells were cultured using a DMEM medium containing an antibiotics and 5% bovine fetal serum in the wells of 24 well plates (cell density: 5 to 6×10^4/well) at 37° C. for one night under 5% carbon dioxide. On the next day, the medium was changed to DMEM medium not containing Phenol Red. Using gene introducing reagent Tfx-20 (Promega), reporter plasmid EREx3-pGL-TK, in which rat estrogen receptor expression plasmid pCI-rER α and an estrogen responsive sequence were placed upstream of the luciferase gene, and β-galactosidase expression plasmid pCMV β used as an internal standard were introduced into cells. The cells were cultured for 2 h, and the medium was changed to DMEM not containing Phenol Red but containing active charcoal-treated serum.
The culture was added with each test compound dissolved in ethanol at various concentrations (final ethanol concentration at 0.5%) and then cultivation was continued at 37° C. for one night under 5% carbon dioxide. On the next day, the cells were lysed and enzymatic activity of luciferase expressed was measured by using a chemiluminometer. The values were standardized based on galactocidase enzymatic activity, and then compared with the values obtained by experiments using no test compound and used as values of activity at various concentrations. […] The estrogenic activities in the table are shown as concentrations for 50% activity (EC50 values) which give 50% activities relative to luciferase activity regarded as 100 that is expressed by treatment with the control compound β-estradiol at 10 nM. Each compound tested in this experiment has a high estrogenic activity.
As antiestrogenic activities, estrogen receptor-dependent transcriptional activation abilities of the test compounds were measured by the reporter gene assay using luciferase gene in the same manner as the estrogen activity measurement. In Table 7, antiestrogenic activities of test compounds are indicated as IC50 values as 50% inhibitory concentrations relative to the luciferase activity regarded as 100 which is expressed by β-estradiol at 1 nM coexisting in the experimental system. Each compound tested in this experiment has antiestrogenic activity.

[2] = system: human promyelocytic leukemia cell strain HL-60; assay: HL-60 differentiation with coexisting HX630 (enhancer of differentiation inducers); details: for percentage of differentiated cells, coexisting compound HX630: coexisting HX630 1 × 10^−7M, control <10; for differentiation inducing activity with HX630 (in words): coexisting HX630 (Table 3)
[3] = system: human promyelocytic leukemia cell strain HL-60; assay: HL-60 differentiation induction, test compound alone; details: for percentage of differentiated cells, no coexisting compound: HL-60, 4 days, control <10
Protocol: Inhibitory activity against proliferation of human promyelocytic leukemia cell strain HL-60 was evaluated an index of anti-leukemia activity. Subcultured HL-60 cells were seeded with the initial cell number of 8×10^4 cells/ml in the RPMI 1640 medium containing bovine fetal serum and an antibiotics. Each test compound was added at various concentrations and the mixture was cultured at 37° C. Four days later, cell number was counted. Anti-leukemia activity of each test compound was shown in the tables as percentage values of differentiated cells, which cells were not differentiated in the absence of the test drug, […] observation and NBT reducing ability of the cells as indexes.

[4] = system: human promyelocytic leukemia cell strain HL-60; assay: HL-60 differentiation with coexisting differentiation inducer Am80 (anti-differentiation activity); details: for percentage of differentiated cells, coexisting compound Am80: coexisting Am80 3.3 × 10^−10M, control 55
[5] = test compound 1 μM, morphology and NBT reducing ability

Q: With “1-(2-hydroxyphenyl)-12-(3-dimethylaminoethoxyphenyl)-1,12-dicarba-closo-dodecaborane [BR172]” as the compound, how does the pIC50 [1] read?
A: The pIC50 was 6.22.

Q: How did the pIC50 [1] turn out when “1-(3-hydroxyphenyl)-2-(3-dimethylaminoethoxyphenyl)-1,2-dicarba-closo-dodecaborane [BR372]” was run?
A: Its pIC50 is 6.70.

Q: With “1-(3-hydroxyphenyl)-7-(3-dimethylaminoethoxyphenyl)-1,7-dicarba-closo-dodecaborane [BR272]” as the compound, how does the pIC50 [1] read?
A: Its pIC50 is 6.30.

Q: Which results are given for “1-(4-hydroxyphenyl)-2(4-dimethylamino-ethoxyphenyl)-1,2-dicarba-closo-dodecaborane [BR362]”?
A: antiestrogenic activity (in words) ([1]; coexisting β-estradiol 1 nM, tamoxifen as control): strong activity comparable to that of antiestrogenic drug tamoxifen; pIC50 [1]: 7.52

Q: How did the pIC50 [1] turn out when “1-(4-hydroxyphenyl)-7-(4-dimethylaminoethoxyphenyl)-1,7-dicarba-closo-dodecaborane [BR262]” was run?
A: The pIC50 was 6.70.

Q: “1-(4-hydroxyphenyl)-12-(4-dimethylaminoethoxyphenyl)-1,12-dicarba-closo-dodecaborane [BR162]” was tested. Which pIC50 [1] did it give?
A: Its pIC50 is 8.00.

Q: With “4-[2-(1,2-dicarba-closo-dododecaboran-1-yl)-(E)-ethenylcarboxamide]benzoic acid [BR110]” as the compound, how does the “percentage of differentiated cells, coexisting compound HX630” value ([2]; HL-60) read?
A: The value was 48%.

Q: What about the “differentiation inducing activity with HX630 (in words)” value [2] of the same compound?
A: The value was “differentiation inducing activities”.

Q: What about the “percentage of differentiated cells, no coexisting compound” value [3, 5] of the same compound?
A: Its value is 12%.

Q: And the “percentage of differentiated cells, coexisting compound Am80” value ([4]; HL-60)?
A: Its value is 60%.

Q: With “4-[3-(2-methyl-1,2-dicarba-closo-dodecaboran-1-yl)phenylcarbamoyl]benzoic acid [BR251]” as the compound, how does the “percentage of differentiated cells, coexisting compound HX630” value ([2]; HL-60) read?
A: The value was 77%.

Q: What about the “differentiation inducing activity with HX630 (in words)” value [2] of the same compound?
A: Its value is “differentiation inducing activities”.

Q: What about the “percentage of differentiated cells, no coexisting compound” value [3, 5] of the same compound?
A: Its value is 8%.

Q: What about the “percentage of differentiated cells, coexisting compound Am80” value ([4]; HL-60) of the same compound?
A: Its value is 55%.

Q: “4-[4-(2-methyl-1,2-dicarba-closo-dodecaboran-1-yl) phenylamino]benzoic acid [BR401]” was tested. Which “percentage of differentiated cells, coexisting compound HX630” value ([2]; HL-60) did it give?
A: The value was 75%.

Q: And the “differentiation inducing activity at low concentration (in words)” value ([3]; 0.01 μM test compound, HL-60)?
A: Its value is “activities were maintained”.

Q: And the “percentage of differentiated cells, no coexisting compound” value ([3]; test compound 0.01 μM)?
A: The value was 26%.

Q: What about the “percentage of differentiated cells, no coexisting compound” value [3, 5] of the same compound?
A: Its value is 70%.

Q: What about the “differentiation inducing activity (in words)” value ([3]; test compound alone, HL-60) of the same compound?
A: The value was “strong differentiation inducing activities”.

Q: What about the “percentage of differentiated cells, coexisting compound Am80” value ([4]; HL-60) of the same compound?
A: The value was 60%.

Q: For “4-[4-(2-methyl-1,2-dicarba-closo-dodecaboran-1-yl)-phenylcarbamoyl]benzoic acid [BR201]”, which “percentage of differentiated cells, coexisting compound HX630” value ([2]; HL-60) is on record?
A: The value was 12%.

Q: What about the “percentage of differentiated cells, no coexisting compound” value [3, 5] of the same compound?
A: Its value is 11%.

Q: What about the “percentage of differentiated cells, coexisting compound Am80” value ([4]; HL-60) of the same compound?
A: The value was 5%.

Q: And the “anti-differentiation activity (in words)” value ([4]; coexisting Am80 (Table 2))?
A: The value was “strong anti-differentiation activity”.

Q: Which results are given for “4-[[3-(1,2-Dicarba-closo-dodecaboran-1-yl)phenyl]carboxamide]benzoic acid [BR350]”?
A: percentage of differentiated cells, coexisting compound HX630 ([2]; HL-60): 48%; differentiation inducing activity with HX630 (in words) [2]: differentiation inducing activities; percentage of differentiated cells, no coexisting compound [3, 5]: 11%; percentage of differentiated cells, coexisting compound Am80 ([4]; HL-60): 60%

Q: Which “percentage of differentiated cells, coexisting compound HX630” value ([2]; HL-60) does the source give for “4-{N-methyl-[2-methyl-4-(2-methyl-1,2-dicarba-closo-dodecaboran-1-yl)]phenylamino}benzoic acid [BR431]” here?
A: The value was 12%.

Q: And the “percentage of differentiated cells, no coexisting compound” value [3, 5]?
A: Its value is 10%.

Q: And the “percentage of differentiated cells, coexisting compound Am80” value ([4]; HL-60)?
A: Its value is 55%.

Q: “4-{[4-(1,2-dicarba-closo-dodecaboran-1-yl)phenyl]carboxamide}benzoic acid [BR300]” was tested. Which “percentage of differentiated cells, coexisting compound HX630” value ([2]; HL-60) did it give?
A: Its value is 8%.

Q: What about the “percentage of differentiated cells, no coexisting compound” value [3, 5] of the same compound?
A: Its value is 6%.

Q: And the “percentage of differentiated cells, coexisting compound Am80” value ([4]; HL-60)?
A: Its value is 37%.

Q: Which “percentage of differentiated cells, control (Am80 without test compound)” value ([4]; Am80 3.3 × 10^−10M alone, HL-60) does the source give for `CC1(C)CCC(C)(C)c2cc(NC(=O)c3ccc(C(=O)O)cc3)ccc21` [Am80, 4-[(5,6,7,8-tetrahydro-5,5,8,8-tetramethyl-2-naphthalenyl)carbamoyl]benzoic acid, reference compound] here?
A: The value was “Am80 3.3 × 10^−10M (control: 55) %”.

Q: `CC1(C)CCC(C)(C)c2cc3c(cc21)Sc1ccccc1N=C3c1ccc(C(=O)O)cc1` [HX630, 4-[2,3-(2,5-dimethyl-2,5-hexano)dibenzo-[b,f]-[1,4]thiazepin-11-yl]benzoic acid, reference compound] was tested. Which “percentage of differentiated cells, control (HX630 without test compound)” value ([2]; HX630 1 × 10^−7M alone, HL-60) did it give?
A: The value was “HX630 1 × 10^−7M (control: <10) %”.
